A short description of data set [1]: Solubility in SLS after sonication. Type of data set: physicochemical. The following applies: 1% w/v SLS, sonication 10 min. As to the method:
Solubility of: a) 10 mg pure testosterone; and b) formulation PLF-2 equivalent to 10 mg testosterone in either 0.5%, 1%, or 2% SLS following sonication for 10 min. was determined. For these studies, 10 mg of pure testosterone was weighed and dissolved in either 100 ml of 0.5%, 1%, or 2% (w/v) SLS, respectively, in volumetric flasks. An amount of formulation PLF-2 that contained 10 mg of testosterone was weighed, and sample solutions were prepared in a similar way as that described above for the testosterone control. These solutions were subjected for sonication for 10 min in a bath sonicator. The samples were then filtered and diluted suitably in their respective concentrations of SLS. The amounts of soluble testosterone for each concentration of SLS was determined by using the HPLC assay method described in Comparative Example 2.

Data set [2] in a line: Solubility of testosterone in various buffers. Type of data set: physicochemical. The following applies: phosphate buffer pH 6.80, 72 h at RT. How it is done:
The solubility of testosterone in different media was tested. An amount of testosterone (100 mg) was added to each of four glass vials containing 10 ml of either: a) HCl buffer (pH 1.20), b) Acetate buffer (pH 4.50), c) phosphate buffer solution (PBS) pH 6.80 and d) nano pure water. These samples were subjected for shaking in a water bath for 72 h at RT. The samples were suitably diluted and analyzed by the HPLC assay method described in Comparative Example 2. Solubility of testosterone was high in phosphate buffer pH 6.80.

The structures appear in SMILES notation.

In the case of `C[C@]12CC[C@H]3[C@@H](CCC4=CC(=O)CC[C@@]43C)[C@@H]1CC[C@@H]2O` [testosterone], in data set [1], the testosterone solubility result is “high testosterone solubility”. Further, the Solubility of testosterone entry in data set [2] was “high”.

The values above are taken from patent US8957053B2, “Proliposomal testosterone formulations” (Tesorx Pharma, LLC, priority 2012, dated 2015).
